{"source": "patent US9963442B2", "about": "“Pyridones as herbicides” (E I DU PONT DE NEMOURS AND COMPANY, priority 2014, dated 2018)", "type_in_all_cases": "in vivo", "key": {"[1]": {"test_system": "sedge, umbrella (small-flower umbrella sedge, Cyperus difformis)", "assay": "Test B flooded paddy test", "set-up": "key: 0 = no effect, 100 = complete control", "conditions": "Flood, 250 g ai/ha applied to paddy water at 2-leaf stage; visually evaluated after 13 to 15 days; scale 0 (no effect) to 100 (complete control)", "procedure,_shortened": "(§1)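 Plants were grown to the 2-leaf stage, then pots were flooded to 3 cm above the soil and compound was applied directly into the paddy water, with that depth held throughout. After 13 to 15 days in a greenhouse, injury was rated visually against untreated controls on a 0 to 100 scale (100 = complete control).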"}, "rice (Oryza sativa)": {"test_system": "rice (Oryza sativa)", "assay": "Test B flooded paddy test", "set-up": "key: 0 = no effect, 100 = complete control", "conditions": "Flood, 250 g ai/ha applied to paddy water at 2-leaf stage; visually evaluated after 13 to 15 days; scale 0 (no effect) to 100 (complete control)", "procedure,_shortened": "as §1"}, "[2]": {"test_system": "lambsquarters (Chenopodium album)", "assay": "Test C postemergence", "conditions": "scale 0 to 100, 0 is no effect, 100 is complete control", "excerpt": "(§2) Seeds of plant species selected from blackgrass (Alopecurus myosuroides), Italian ryegrass (Lolium multiflorum), winter wheat (Triticum aestivum), galium (catchweed bedstraw, Galium aparine), corn (Zea mays), large (Lg) crabgrass (Digitaria sanguinalis), giant foxtail (Setaria faberii), johnsongrass (Sorghum halepense), lambsquarters (Chenopodium album), morningglory (Ipomoea coccinea), yellow nutsedge (Cyperus esculentus), pigweed (Amaranthus retroflexus), ragweed (common ragweed, Ambrosia elatior), soybean (Glycine max), barnyardgrass (Echinochloa crus-galli), oilseed rape (Brassica napus), waterhemp (common waterhemp, Amaranthus rudis), and velvetleaf (Abutilon theophrasti) were planted into a blend of loam soil and sand and treated preemergence with test chemicals formulated in a non-phytotoxic solvent mixture which included a surfactant. At the same time, plants selected from these crop and weed species and also chickweed (common chickweed, Stellaria media), kochia (Kochia scoparia), and wild oat (Avena fatua), were planted in pots containing Sunshine Redi-Earth® planting medium comprising spaghnum peat moss, vermiculite, starter nutrients and dolomitic limestone and treated with postemergence applications of test chemicals formulated in the same manner. Plants ranged in height from 2 to 18 cm (1- to 4-leaf stage) for postemergence treatments. Treated plants and controls were maintained in a greenhouse for 13 to 15 days, after which time all species were compared to controls and visually evaluated. Plant response ratings, summarized in Table C, are based on a scale of 0 to 100 where 0 is no effect and 100 is complete control. A dash (-) response means no test result."}, "wild oat (Avena fatua)": {"test_system": "wild oat (Avena fatua)", "assay": "Test C postemergence", "conditions": "scale 0 to 100, 0 is no effect, 100 is complete control", "excerpt": "as §2"}, "soybean (Glycine max)": {"test_system": "soybean (Glycine max)", "assay": "Test C postemergence", "conditions": "scale 0 to 100, 0 is no effect, 100 is complete control", "excerpt": "as §2"}, "[3]": {"test_system": "galium (catchweed bedstraw, Galium aparine)", "assay": "Test A postemergence application", "conditions": "approx. 10 days", "procedure,_shortened": "(§3)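 Postemergence: seedlings 2–10 cm, 1–2 leaf stage, sprayed; preemergence: directed soil spray after sowing. Surfactant-containing non-phytotoxic solvent vehicle. Visual rating vs. controls at ~10 d, 0 = no effect, 100 = complete control.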"}, "kochia (Kochia scoparia) [4]": {"test_system": "kochia (Kochia scoparia)", "assay": "Test A postemergence application", "conditions": "approx. 10 days", "procedure,_shortened": "as §3"}, "[5]": {"test_system": "wheat (Triticum aestivum)", "assay": "Test A postemergence application", "conditions": "approx. 10 days", "procedure,_shortened": "as §3"}, "[6]": {"test_system": "blackgrass (Alopecurus myosuroides)", "assay": "Test A postemergence application", "conditions": "approx. 10 days", "procedure,_shortened": "as §3"}, "[7]": {"test_system": "Italian ryegrass (Lolium multiflorum)", "assay": "Test A postemergence application", "conditions": "approx. 10 days", "procedure,_shortened": "as §3"}, "[8]": {"test_system": "pigweed (Amaranthus retroflexus)", "assay": "Test A postemergence application", "conditions": "approx. 10 days", "procedure,_shortened": "as §3"}, "[9]": {"test_system": "ragweed (common ragweed, Ambrosia elatior)", "assay": "Test A postemergence application", "conditions": "approx. 10 days", "procedure,_shortened": "as §3"}, "corn (Zea mays)": {"test_system": "corn (Zea mays)", "assay": "Test A postemergence application", "conditions": "approx. 10 days", "procedure,_shortened": "as §3"}, "[10]": {"test_system": "giant foxtail (Setaria faberii)", "assay": "Test A postemergence application", "conditions": "approx. 10 days", "procedure,_shortened": "as §3"}, "[11]": {"test_system": "barnyardgrass (Echinochloa crus-galli)", "assay": "Test A postemergence application", "conditions": "approx. 10 days", "procedure,_shortened": "as §3"}, "kochia (Kochia scoparia) [12]": {"test_system": "kochia (Kochia scoparia)", "assay": "Test A preemergence, directed soil spray", "conditions": "approx. 10 days", "procedure,_shortened": "as §3"}, "[13]": {"test_system": "Italian ryegrass (Lolium multiflorum)", "assay": "Test A preemergence, directed soil spray", "conditions": "approx. 10 days", "procedure,_shortened": "as §3"}, "[14]": {"test_system": "pigweed (Amaranthus retroflexus)", "assay": "Test A preemergence, directed soil spray", "conditions": "approx. 10 days", "procedure,_shortened": "as §3"}, "[15]": {"test_system": "ragweed (common ragweed, Ambrosia elatior)", "assay": "Test A preemergence, directed soil spray", "conditions": "approx. 10 days", "procedure,_shortened": "as §3"}, "[16]": {"test_system": "giant foxtail (Setaria faberii)", "assay": "Test A preemergence, directed soil spray", "conditions": "approx. 10 days", "procedure,_shortened": "as §3"}, "[17]": {"test_system": "barnyardgrass (Echinochloa crus-galli)", "assay": "Test A preemergence, directed soil spray", "conditions": "approx. 10 days", "procedure,_shortened": "as §3"}}}
{"molecule": "O=c1cccc(Oc2ncc(Cl)cn2)n1-c1ccc(C(F)(F)F)cn1", "note": "[Compound 7]", "values": [{"measurement": "Plant response rating, Sedge, Umbrella", "setting": "[1]", "value": 90}, {"measurement": "Plant response rating, Rice", "setting": "rice (Oryza sativa)", "value": 0}, {"measurement": "Plant response rating, Lambsquarters", "setting": "[2]; 16 g ai/ha", "value": 25}, {"measurement": "Plant response rating, Lambsquarters", "setting": "[2]; 31 g ai/ha", "value": 65}, {"measurement": "Plant response rating, Lambsquarters", "setting": "[2]; 62 g ai/ha", "value": 65}, {"measurement": "Plant response rating, Lambsquarters", "setting": "[2]; 125 g ai/ha", "value": 75}, {"measurement": "Plant response rating, Oat, Wild", "setting": "wild oat (Avena fatua); 16 g ai/ha", "value": 0}, {"measurement": "Plant response rating, Oat, Wild", "setting": "wild oat (Avena fatua); 31 g ai/ha", "value": 0}, {"measurement": "Plant response rating, Oat, Wild", "setting": "wild oat (Avena fatua); 62 g ai/ha", "value": 5}, {"measurement": "Plant response rating, Oat, Wild", "setting": "wild oat (Avena fatua); 125 g ai/ha", "value": 5}, {"measurement": "Plant response rating, Soybean", "setting": "soybean (Glycine max); 16 g ai/ha", "value": 50}, {"measurement": "Plant response rating, Soybean", "setting": "soybean (Glycine max); 31 g ai/ha", "value": 40}, {"measurement": "Plant response rating, Soybean", "setting": "soybean (Glycine max); 62 g ai/ha", "value": 50}, {"measurement": "Plant response rating, Soybean", "setting": "soybean (Glycine max); 125 g ai/ha", "value": 55}, {"measurement": "Plant response rating (0 to 100 scale, 0 no effect, 100 complete control), Galium", "setting": "[3]; 31 g ai/ha", "value": 50}, {"measurement": "Plant response rating (0 to 100 scale, 0 no effect, 100 complete control), Galium", "setting": "[3]; 125 g ai/ha", "value": 90}, {"measurement": "Plant response rating (0 to 100 scale, 0 no effect, 100 complete control), Kochia", "setting": "kochia (Kochia scoparia) [4]; 31 g ai/ha", "value": 80}, {"measurement": "Plant response rating (0 to 100 scale, 0 no effect, 100 complete control), Kochia", "setting": "kochia (Kochia scoparia) [4]; 125 g ai/ha", "value": 90}, {"measurement": "Plant response rating (0 to 100 scale, 0 no effect, 100 complete control), Wheat", "setting": "[5]; 31 g ai/ha", "value": 0}, {"measurement": "Plant response rating (0 to 100 scale, 0 no effect, 100 complete control), Wheat", "setting": "[5]; 125 g ai/ha", "value": 20}, {"measurement": "Plant response rating (0 to 100 scale, 0 no effect, 100 complete control), Blackgrass", "setting": "[6]; 31 g ai/ha", "value": 10}, {"measurement": "Plant response rating (0 to 100 scale, 0 no effect, 100 complete control), Blackgrass", "setting": "[6]; 125 g ai/ha", "value": 30}, {"measurement": "Plant response rating (0 to 100 scale, 0 no effect, 100 complete control), Ryegrass, Italian", "setting": "[7]; 31 g ai/ha", "value": 0}, {"measurement": "Plant response rating (0 to 100 scale, 0 no effect, 100 complete control), Ryegrass, Italian", "setting": "[7]; 125 g ai/ha", "value": 20}, {"measurement": "Plant response rating (0 to 100 scale, 0 no effect, 100 complete control), Pigweed", "setting": "[8]; 31 g ai/ha", "value": 70}, {"measurement": "Plant response rating (0 to 100 scale, 0 no effect, 100 complete control), Pigweed", "setting": "[8]; 125 g ai/ha", "value": 90}, {"measurement": "Plant response rating (0 to 100 scale, 0 no effect, 100 complete control), Ragweed", "setting": "[9]; 31 g ai/ha", "value": 30}, {"measurement": "Plant response rating (0 to 100 scale, 0 no effect, 100 complete control), Ragweed", "setting": "[9]; 125 g ai/ha", "value": 60}, {"measurement": "Plant response rating (0 to 100 scale, 0 no effect, 100 complete control), Corn", "setting": "corn (Zea mays); 31 g ai/ha", "value": 10}, {"measurement": "Plant response rating (0 to 100 scale, 0 no effect, 100 complete control), Corn", "setting": "corn (Zea mays); 125 g ai/ha", "value": 20}, {"measurement": "Plant response rating (0 to 100 scale, 0 no effect, 100 complete control), Foxtail, Giant", "setting": "[10]; 31 g ai/ha", "value": 20}, {"measurement": "Plant response rating (0 to 100 scale, 0 no effect, 100 complete control), Foxtail, Giant", "setting": "[10]; 125 g ai/ha", "value": 50}, {"measurement": "Plant response rating (0 to 100 scale, 0 no effect, 100 complete control), Barnyardgrass", "setting": "[11]; 31 g ai/ha", "value": 20}, {"measurement": "Plant response rating (0 to 100 scale, 0 no effect, 100 complete control), Barnyardgrass", "setting": "[11]; 125 g ai/ha", "value": 50}, {"measurement": "Plant response rating (0 to 100 scale, 0 no effect, 100 complete control), Kochia", "setting": "kochia (Kochia scoparia) [12]; 31 g ai/ha", "value": 30}, {"measurement": "Plant response rating (0 to 100 scale, 0 no effect, 100 complete control), Kochia", "setting": "kochia (Kochia scoparia) [12]; 125 g ai/ha", "value": 70}, {"measurement": "Plant response rating (0 to 100 scale, 0 no effect, 100 complete control), Ryegrass, Italian", "setting": "[13]; 31 g ai/ha", "value": 10}, {"measurement": "Plant response rating (0 to 100 scale, 0 no effect, 100 complete control), Ryegrass, Italian", "setting": "[13]; 125 g ai/ha", "value": 60}, {"measurement": "Plant response rating (0 to 100 scale, 0 no effect, 100 complete control), Pigweed", "setting": "[14]; 31 g ai/ha", "value": 100}, {"measurement": "Plant response rating (0 to 100 scale, 0 no effect, 100 complete control), Pigweed", "setting": "[14]; 125 g ai/ha", "value": 100}, {"measurement": "Plant response rating (0 to 100 scale, 0 no effect, 100 complete control), Ragweed", "setting": "[15]; 31 g ai/ha", "value": 10}, {"measurement": "Plant response rating (0 to 100 scale, 0 no effect, 100 complete control), Ragweed", "setting": "[15]; 125 g ai/ha", "value": 70}, {"measurement": "Plant response rating (0 to 100 scale, 0 no effect, 100 complete control), Foxtail, Giant", "setting": "[16]; 31 g ai/ha", "value": 60}, {"measurement": "Plant response rating (0 to 100 scale, 0 no effect, 100 complete control), Foxtail, Giant", "setting": "[16]; 125 g ai/ha", "value": 100}, {"measurement": "Plant response rating (0 to 100 scale, 0 no effect, 100 complete control), Barnyardgrass", "setting": "[17]; 31 g ai/ha", "value": 20}, {"measurement": "Plant response rating (0 to 100 scale, 0 no effect, 100 complete control), Barnyardgrass", "setting": "[17]; 125 g ai/ha", "value": 70}]}
